According to patent publication US11439622B2 (OXFORD UNIVERSITY INNOVATION LIMITED, priority 2015, dated 2022):

Columns and labels:
Type in all cases: biochemical
[1] = molecular target: VIM-2 (Veronese metallo-β-lactamase-2) (Escherichia coli, UniProt Q5U7L7); test: Enzyme inhibition assay, VIM-2; details: read-out: pIC50 VIM-2 (converted)
Protocol: (§1) The biological activity of the compounds of the present invention was tested using standard assay protocols.^7 The following representative enzymes NDM-1 (New Delhi metallo-β-lactamase-1), IMP-1 (Imipenemase-1) and VIM-2 (Veronese metallo-β-lactamase-2) were selected from different clinically relevant B1 metallo-β-lactamases.

IMP-1 (Imipenemase-1) = IMP-1 (Imipenemase-1) (Serratia marcescens, UniProt P52699); test: Enzyme inhibition assay, IMP-1; details: read-out: pIC50 IMP-1 (converted)
Protocol: as §1

[2] = molecular target: NDM-1 (New Delhi metallo-β-lactamase-1) (Klebsiella pneumoniae, UniProt C7C422); test: Enzyme inhibition assay, NDM-1; details: read-out: pIC50 NDM-1 (converted)
Protocol: as §1

Chain of NDM-1 (New Delhi metallo-β-lactamase-1) (C7C422 29-270, looked up, species assumed): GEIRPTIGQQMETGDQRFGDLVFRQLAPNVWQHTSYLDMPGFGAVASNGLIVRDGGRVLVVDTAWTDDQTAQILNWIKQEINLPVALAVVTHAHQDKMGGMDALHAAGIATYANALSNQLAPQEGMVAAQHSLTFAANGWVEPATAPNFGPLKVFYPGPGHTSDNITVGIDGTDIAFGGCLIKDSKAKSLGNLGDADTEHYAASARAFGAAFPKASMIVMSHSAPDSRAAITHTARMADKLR
Chain of IMP-1 (Imipenemase-1) (P52699 19-246, looked up, species assumed): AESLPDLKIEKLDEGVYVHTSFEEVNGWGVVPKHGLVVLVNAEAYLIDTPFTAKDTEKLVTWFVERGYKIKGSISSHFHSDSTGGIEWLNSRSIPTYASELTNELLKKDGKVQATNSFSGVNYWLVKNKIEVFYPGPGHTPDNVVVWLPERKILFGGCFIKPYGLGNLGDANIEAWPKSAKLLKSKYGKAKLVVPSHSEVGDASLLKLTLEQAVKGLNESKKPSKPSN

SMILES	IC50 [1]	IC50 (IMP-1 (Imipenemase-1))	IC50 [2]
Cc1cccc2c(-c3ccccn3)c(C(=O)O)[nH]c12 [Example 63, 7-methyl-3-(pyridin-2-yl)-1H-indole-2-carboxylic acid]	1000 nM	> 100000 nM	316 nM
CC(C)c1cccc2c(-c3ccccc3Cl)c(C(=O)O)[nH]c12 [Example 72, 3-(2-chlorophenyl)-7-isopropyl-1H-indole-2-carboxylic acid]	12.6 nM	2510 nM	50.1 nM
CC(C)c1cccc2c(-c3ccc4[nH]ncc4c3)c(C(=O)O)[nH]c12 [Example 75, 3-(1H-indazol-5-yl)-7-isopropyl-1H-indole-2-carboxylic acid]	10 nM	25.1 nM	2 nM
COc1cccc(-c2c(C(=O)O)[nH]c3c(C(C)C)cccc23)c1OC [Example 77, 3-(2,3-dimethoxyphenyl)-7-isopropyl-1H-indole-2-carboxylic acid]	6.31 nM	12600 nM	200 nM
CC(C)c1cccc2c(-c3ccc(Cn4cncn4)cc3)c(C(=O)O)[nH]c12 [Example 80, 3-(4-((1H-1,2,4-triazol-1-yl)methyl)phenyl)-7-isopropyl-1H-indole-2-carboxylic acid]	10 nM	20 nM	0.631 nM
CN(C)S(=O)(=O)c1ccc(-c2c(C(=O)O)[nH]c3c(CCOc4ccccc4)cccc23)cc1 [Example 81, 3-(4-(N,N-dimethylsulfamoyl)phenyl)-7-(2-phenoxyethyl)-1H-indole-2-carboxylic acid]	63.1 nM	100 nM	1.58 nM
Cc1c(Oc2ccccc2)ccc2c(-c3ccc(S(=O)(=O)N(C)C)cc3)c(C(=O)O)[nH]c12 [Example 82, 3-(4-(N,N-dimethylsulfamoyl)phenyl)-7-methyl-6-phenoxy-1H-indole-2-carboxylic acid]	158 nM	501 nM	3.98 nM
CN(C)C(=O)c1ccc(-c2c(C(=O)O)[nH]c3c(CCOc4ccccc4)cccc23)cc1 [Example 83, 3-(4-(dimethylcarbamoyl)phenyl)-7-(2-phenoxyethyl)-1H-indole-2-carboxylic acid]	100 nM	63.1 nM	3.98 nM
O=C(O)c1[nH]c2c(CCOc3ccccc3)cccc2c1-c1ccc(Cl)cc1 [Example 84, 3-(4-chlorophenyl)-7-(2-phenoxyethyl)-1H-indole-2-carboxylic acid]	20 nM	631 nM	37.2 nM
Cc1c(Oc2ccccc2)ccc2c(-c3ccc(Cl)cc3)c(C(=O)O)[nH]c12 [Example 85, 3-(4-chlorophenyl)-7-methyl-6-phenoxy-1H-indole-2-carboxylic acid]	158 nM	1000 nM	100 nM
Cc1c(Oc2ccccc2)ccc2c(-c3ccc(C(=O)N(C)C)cc3)c(C(=O)O)[nH]c12 [Example 86, 3-(4-(dimethylcarbamoyl)phenyl)-7-methyl-6-phenoxy-1H-indole-2-carboxylic acid]	575 nM	646 nM	7.41 nM
CC(C)c1cccc2c(-c3ccc(S(=O)(=O)N(C)C)cc3)c(-c3nnn[nH]3)[nH]c12 [Example 102, 4-[7-isopropyl-2-(1H-tetrazol-5-yl)-1H-indol-3-yl]-N,N-dimethyl-benzenesulfonamide]	407 nM	13200 nM	10 nM
Cc1cccc2c(C3CCCCC3)c(C(=O)O)[nH]c12 [Example 103]	3160 nM	79400 nM	79.4 nM
Cc1cccc2c(C3CCCC3)c(C(=O)O)[nH]c12 [Example 104, 3-cyclopentyl-7-methyl-1H-indole-2-carboxylic acid]	12600 nM	50100 nM	251 nM
Cc1cccc2c(C3CCN(C(=O)OC(C)(C)C)CC3)c(C(=O)O)[nH]c12 [Example 105, 3-(1-tert-butoxycarbonyl-4-piperidyl)-7-methyl-1H-indole-2-carboxylic acid]	2510 nM	31600 nM	158 nM
Cc1cccc2c(Cc3ccc(Cl)cc3)c(C(=O)O)[nH]c12 [Example 107, 3-[(4-chlorophenyl)methyl]-7-methyl-1H-indole-2-carboxylic acid]	1580 nM	3980 nM	631 nM
COc1cccc(-c2c(C(=O)O)[nH]c3c(C)cccc23)c1OC [Example 116, 3-(2,3-dimethoxyphenyl)-7-methyl-1H-indole-2-carboxylic acid]	39.8 nM	> 100000 nM	1260 nM

More lines, now with the values ahead:

IC50 [1]	IC50 (IMP-1 (Imipenemase-1))	IC50 [2]	SMILES
631 nM	> 100000 nM	126 nM	COc1cc(C)c2[nH]c(C(=O)O)c(-c3ccc(F)cc3)c2c1 [Example 60, 3-(4-fluorophenyl)-5-methoxy-7-methyl-1H-indole-2-carboxylic acid]
316 nM	1260 nM	31.6 nM	COCCc1cccc2c(-c3ccc(F)cc3)c(C(=O)O)[nH]c12 [Example 61, 3-(4-fluorophenyl)-7-(2-methoxyethyl)-1H-indole-2-carboxylic acid]
158 nM	316 nM	5.01 nM	O=C(O)c1[nH]c2c(CCOc3ccccc3)cccc2c1-c1ccc(F)cc1 [Example 62, 3-(4-fluorophenyl)-7-(2-phenoxyethyl)-1H-indole-2-carboxylic acid]
501 nM	1580 nM	15.8 nM	Cc1c(Oc2ccccc2)ccc2c(-c3ccc(F)cc3)c(C(=O)O)[nH]c12 [Example 64, 3-(4-fluorophenyl)-7-methyl-6-phenoxy-1H-indole-2-carboxylic acid]
12.6 nM	31.6 nM	1.58 nM	CC(C)c1cccc2c(-c3ccc(S(N)(=O)=O)cc3)c(C(=O)O)[nH]c12 [Example 65, 7-isopropyl-3-(4-sulfamoylphenyl)-1H-indole-2-carboxylic acid]
31.6 nM	31.6 nM	5.01 nM	CC(C)c1cccc2c(-c3ccccc3)c(C(=O)O)[nH]c12 [Example 66, 7-isopropyl-3-phenyl-1H-indole-2-carboxylic acid]
20 nM	39.8 nM	2.51 nM	CC(C)c1cccc2c(-c3ccc(S(C)(=O)=O)cc3)c(C(=O)O)[nH]c12 [Example 67, 7-isopropyl-3-(4-(methylsulfonyl)phenyl)-1H-indole-2-carboxylic acid]
31.6 nM	39.8 nM	6.31 nM	CC(C)c1cccc2c(-c3ccncc3)c(C(=O)O)[nH]c12 [Example 68, 7-isopropyl-3-(pyridin-4-yl)-1H-indole-2-carboxylic acid]
7.94 nM	12.6 nM	2.51 nM	CC(C)c1cccc2c(-c3ccc(C(N)=O)cc3)c(C(=O)O)[nH]c12 [Example 69, 3-(4-carbamoylphenyl)-7-isopropyl-1H-indole-2-carboxylic acid]
79.4 nM	10 nM	2.51 nM	CC(C)c1cccc2c(-c3ccc(N4CCOCC4)cc3)c(C(=O)O)[nH]c12 [Example 70, 7-isopropyl-3-(4-morpholinophenyl)-1H-indole-2-carboxylic acid]
20 nM	39.8 nM	3.98 nM	CC(C)c1cccc2c(-c3ccc(Cl)cc3)c(C(=O)O)[nH]c12 [Example 71, 3-(4-chlorophenyl)-7-isopropyl-1H-indole-2-carboxylic acid]
31.6 nM	31.6 nM	0.355 nM	CC(C)c1cccc2c(-c3ccc(S(=O)(=O)N(C)C)cc3)c(C(=O)O)[nH]c12 [Example 73]
79.4 nM	20 nM	0.562 nM	CC(C)c1cccc2c(-c3ccc(C(=O)N(C)C)cc3)c(C(=O)O)[nH]c12 [Example 74, 3-(4-(dimethylcarbamoyl)phenyl)-7-isopropyl-1H-indole-2-carboxylic acid]
3.98 nM	126 nM	10 nM	CC(C)c1cccc2c(-c3cc(F)cc(F)c3)c(C(=O)O)[nH]c12 [Example 78, 3-(3,5-difluorophenyl)-7-isopropyl-1H-indole-2-carboxylic acid]
3.98 nM	15.8 nM	0.501 nM	CC(C)c1cccc2c(-c3ccc(Cn4cccn4)cc3)c(C(=O)O)[nH]c12 [Example 79, 3-(4-((1H-pyrazol-1-yl)methyl)phenyl)-7-isopropyl-1H-indole-2-carboxylic acid]
10.2 nM	53.7 nM	4.27 nM	CNS(=O)(=O)c1ccc(-c2c(C(=O)O)[nH]c3c(C(C)C)cccc23)cc1 [Example 88, 7-isopropyl-3-(4-(N-methylsulfamoyl)phenyl)-1H-indole-2-carboxylic acid]
7.24 nM	44.7 nM	3.39 nM	CC(C)c1cccc2c(-c3ccc(C(=O)O)cc3)c(C(=O)O)[nH]c12 [Example 91, 3-(4-carboxyphenyl)-7-isopropyl-1H-indole-2-carboxylic acid]
105 nM	105 nM	5.89 nM	CC(C)c1cccc2c(-c3ccc(CN4CCOCC4)cc3)c(C(=O)O)[nH]c12 [Example 94, 7-isopropyl-3-(4-(morpholinomethyl)phenyl)-1H-indole-2-carboxylic acid]
50.1 nM	501 nM	12.6 nM	O=C(O)c1[nH]c2c(C3CC3)cccc2c1-c1ccc(F)cc1 [Example 106, 7-cyclopropyl-3-(4-fluorophenyl)-1H-indole-2-carboxylic acid]
794 nM	3160 nM	50.1 nM	O=C(O)c1[nH]c2c(CCO)cccc2c1-c1ccc(F)cc1 [Example 108, 3-(4-fluorophenyl)-7-(2-hydroxyethyl)-1H-indole-2-carboxylic acid]
